Legend:
[1] = test system: KOR M142A mutant; experiment: 3H-U69593 binding at KOR single point mutant M142A; settings: vs wild type KOR
[2] = test system: KOR H291A mutant; experiment: 3H-U69593 binding at KOR single point mutant H291A; settings: vs wild type KOR
[3] = test system: KOR I294A mutant; experiment: 3H-U69593 binding at KOR single point mutant I294A; settings: vs wild type KOR
[4] = target: T1, KOR (Homo sapiens, UniProt P41145); format: binding; settings: for LE (Ligand Efficiency): LE = 1.4(−logKi)/N
[5] = target: T1, KOR; experiment: KOR-arrestin translocation; format: cell-based; settings: for agonist activity in β-arrestin recruitment: agonist mode, normalized to Sal A
[6] = target: DOR (Homo sapiens, UniProt P41143); experiment: Gi-mediated inhibition of cAMP production at DOR; format: cell-based; settings: relative to KOR agonist activity; Figure S1
[7] = target: MOR (Homo sapiens, UniProt P35372); experiment: Gi-mediated inhibition of cAMP production at MOR; format: cell-based; settings: relative to KOR agonist activity; Figure S1
[8] = target: T1, KOR; experiment: Gi-mediated inhibition of cAMP production; format: cell-based
[9] = inhibition of Sal A mediated Gi activation

Compound	effect of M142A mutation on ligand binding (fold reduction of binding vs WT KOR) [1]	effect of H291A mutation on ligand affinity (fold reduction vs WT KOR) [2]	effect of I294A mutation on ligand affinity (fold reduction vs WT KOR) [3]	LE (Ligand Efficiency) ([4]; Table 2 derivatives) [kcal/mol per heavy atom]	other results
Cc1c(C(=O)NCC(c2ccco2)N2CCCC2)oc2ccc(Cl)cc12 (stereo not drawn) [Compound 72]	enhancing binding	–	–	–	–
COC(=O)[C@@H]1C[C@H](OC(C)=O)C(=O)[C@H]2[C@@]1(C)CC[C@H]1C(=O)O[C@H](c3ccoc3)C[C@]21C [Sal A, salvinorin A, reference compound]	at least 10 fold	not affecting binding	not affecting binding	–	–
COc1ccc(CNCC(O)c2cccc(O)c2)cc1Br (stereo not drawn) [Compound 67]	at least 10 fold	more than 10 fold	more than 10 fold	–	–
CC(c1cccc(O)c1)N(C)Cc1nccn1CC(F)(F)F (stereo not drawn) [Compound 28]	–	–	–	–	%Inhib ± SEM (inhibition of 3H-U69593 radioligand binding) ([4]; Table 1 VLS hits, 50 μM compound, SEM, N=3): 96.9 ± 1.2%; agonist activity in β-arrestin recruitment [5]: measurable β-arrestin recruitment activity; reduction of agonist activity at DOR [6]: at least 50%; reduction of agonist activity at MOR [7]: at least 50%
Oc1cccc(C(O)CNCc2ccc(Cl)cc2Cl)c1 (stereo not drawn) [Compound 64]	at least 10 fold	more than 10 fold	more than 10 fold	0.47	antagonist activity: inhibition of Sal A-induced β-arrestin recruitment ([5]; antagonist mode, 30 nM Sal A, normalized to 5-GNTI): completely inhibiting; functional profile, arrestin versus G-protein assays ([8]; comparison of β-arrestin (Tango) and Gi-cAMP assays): balanced antagonist; Schild slope [8, 9]: 1.15 ± 0.06; pA2 (Schild analysis) [8, 9]: 6.78 ± 0.11
COc1ccc2oc(C(=O)NCC(c3ccco3)N3CCCC3)c(C)c2c1 (stereo not drawn) [Compound 73]	–	–	–	0.32	–
Cc1ccc(C(CNC(=O)c2oc3ccc(F)cc3c2C)N2CCCC2)o1 (stereo not drawn) [Compound 70]	enhancing binding	–	–	0.32	–
CCN(Cc1csc(C)n1)C(C)c1cccc(O)c1 (stereo not drawn) [Compound 87]	–	more than 10 fold	more than 10 fold	–	–
CC(NCc1nccn1C)c1cccc(O)c1 (stereo not drawn) [Compound 81]	–	–	–	–	%Inhib (inhibition of 3H-U69593 radioligand binding) ([4]; Table 2 derivatives, 50 μM compound, N=3): 78.81%; agonist activity in β-arrestin recruitment [5]: minimal β-arrestin recruitment; reduction of agonist activity at DOR [6]: ≥ 70%; reduction of agonist activity at MOR [7]: ≥ 70%
O=C(NC[C@@H](c1ccco1)N1CCCC1)c1cc2ccccc2o1 [Compound 71]	–	–	–	0.35	–
Cc1ccc(C(CNC(=O)c2oc3ccccc3c2C)N2CCCC2)o1 (stereo not drawn) [Compound 69]	enhancing binding	–	–	–	–
